Experimental data published in article PMC10714400, “Antimicrobial Peptide–Peptoid Hybrids with and without Membrane Disruption” (ACS Infectious Diseases, 2023).
In brackets after ≈: the same amount, converted by molar mass. Where two headings read alike, the source gives them in different places. Where a SMILES comes first, the peptide text is derived from it. [ ]: non-standard residue; d: D form.

Legend:
E. cloacae = tested on: E. cloacae
Procedure, shortened: (§1)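 MIC taken visually after MTT staining (20–30 min, RT) as the lowest compound concentration preventing growth, i.e. yellow wells. Inoculum ~5 × 10^5 CFU/well in MH broth, 37 °C static for ca. 18 h; polymyxin B control started at 16 μg/mL.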

E. coli W3110 = tested on: E. coli W3110
Procedure, shortened: as §1

K. pneumoniae OXA-48 = tested on: K. pneumoniae OXA-48
Procedure, shortened: as §1

PA14 2P4 (pmrB) = tested on: PA14 2P4 (pmrB)
Procedure, shortened: as §1

PA14 4.13 (phoQ) = tested on: PA14 4.13 (phoQ)
Procedure, shortened: as §1

S. aureus COL (MRSA) = tested on: S. aureus COL (MRSA)
Procedure, shortened: as §1

[1] = tested on: ZEM-1A (clinical MDR P. aeruginosa isolate)
Procedure, shortened: as §1

[2] = tested on: ZEM9A (clinical MDR P. aeruginosa isolate)
Procedure, shortened: as §1

[3] = tested on: human red blood cells (hRBC); assay: Minimum hemolytic concentration (MHC); format: cell-based
Description: We also measured minimal hemolysis concentrations (MHC) on human red blood cells by serial 2-fold dilution as an indication of toxicity against eukaryotic cells (Table 1).

[4] = Circular dichroism, α-helical content; format: physicochemical; settings: 0.1 mg/mL; for CD %α with 5 mM DPC: 10 mM phosphate buffer pH 7.4, 5 mM DPC; for CD %α with 20% TFE: 10 mM phosphate buffer pH 7.4, 20% TFE
B. cenocepacia = tested on: B. cenocepacia
Procedure, shortened: as §1

P. aeruginosa PA14 = tested on: P. aeruginosa PA14
Procedure, shortened: as §1

S. aureus Newman = tested on: S. aureus Newman
Procedure, shortened: as §1

S. epidermis = tested on: S. epidermis
Procedure, shortened: as §1

S. maltophilia = tested on: S. maltophilia
Procedure, shortened: as §1

HEK293 cells = assay: Cell viability assay by Alamar blue; settings: read-out: Toxicity on HEK293 cells; CSV
Procedure: The data are represented as the mean value ± SD, n = 3. […] (c) Vesicle leakage assay for a selection of compounds. Lipid vesicles made of EYPG or EYPC were suspended in a buffer (10 mM TRIS, 107 mM NaCl, pH 7.4). After 45 s, the indicated compound was added to reach the desired concentration. After 240 s, 30 μL of 1.2% TritonX-100 was added for full fluorescein release. […] See Supporting Information for the full curves, all of the data, and procedures.
HEK293 cells were cultured and maintained in DMEM high glucose (Dulbecco’s modified Eagle medium, Sigma Aldrich) medium supplemented with 10% FBS (Sigma Aldrich) and 1% penicillin/streptomycin. A549 cells were cultured and maintained in RPMI-1640 medium (Sigma Aldrich), supplemented with 10% FBS (Sigma Aldrich) and 1% penicillin/streptomycin. The cells were handled and subcultured according to the manufacturer instructions. Cells were incubated in a humidified incubator at 37 °C in the presence of 5% CO2.
Assays on HEK293, A549 cells were performed as described earlier.[74] […]

In the case of `CC(C)C[C@H](NC(=O)[C@H](CC(C)C)NC(=O)[C@H](CC(C)C)NC(=O)[C@@H](CCCCN)NC(=O)[C@H](CC(C)C)NC(=O)[C@H](CC(C)C)NC(=O)[C@@H](CCCCN)NC(=O)[C@H](CC(C)C)NC(=O)[C@H](CC(C)C)NC(=O)[C@@H](CCCCN)NC(=O)[C@H](N)CCCCN)C(N)=O` [ln69, kkLLkLLkLLL, reference compound] (H-[dK][dK]LL[dK]LL[dK]LLL-NH2), the “MIC E. cloacae, […] MH at pH 8.5” value (E. cloacae; CSV, […] MH at pH 8.5) is reported as 2 ug/mL, the “MIC E. cloacae, full MH at pH 7.4” value (E. cloacae; CSV, full MH at pH 7.4) is reported as 4 ug/mL and the “MIC E. cloacae” value (E. cloacae; MH pH 7.4, 16–20 h at 37 °C) is reported as 4 µg/mL (≈ 3.03 µM). The “MIC E. cloacae” value (E. cloacae; Table S3, […] MH at pH 8.5) was 2 µg/mL (≈ 1.51 µM), the “MIC E. coli W3110, […] MH at pH 7.4” value (E. coli W3110; CSV, […] MH at pH 7.4) was 2 ug/mL and the “MIC E. coli W3110, […] MH at pH 8.5” value (E. coli W3110; CSV, […] MH at pH 8.5) was 2 ug/mL. For the same compound, the “MIC E. coli W3110, full MH at pH 7.4” value (E. coli W3110; CSV, full MH at pH 7.4) was 4 ug/mL, the “MIC E. coli W3110 […] 7.4” value (E. coli W3110; Table S2, […] MH, pH 7.4) was 2 µg/mL (≈ 1.51 µM) and the “MIC E. coli W3110 […] 8.5” value (E. coli W3110; Table S2, […] MH, pH 8.5) was 2 µg/mL (≈ 1.51 µM). The “MIC E. coli W3110 Full MH 7.4” value (E. coli W3110; Table S2, full MH, pH 7.4) was 4 µg/mL (≈ 3.03 µM), the “MIC E. coli W3110 Full MH 8.5” value (E. coli W3110; Table S2, full MH, pH 8.5) was 16 µg/mL (≈ 12.1 µM) and the “MIC K. pneumoniae OXA-48, […] MH at pH 8.5” value (K. pneumoniae OXA-48; CSV, […] MH at pH 8.5) was 2 ug/mL. The “MIC K. pneumoniae OXA-48, full MH at pH 7.4” value (K. pneumoniae OXA-48; CSV, full MH at pH 7.4) was 4 ug/mL, the “MIC K. pneumoniae OXA-48” value (K. pneumoniae OXA-48; MH pH 7.4, 16–20 h at 37 °C) was 4 µg/mL (≈ 3.03 µM) and the “MIC K. pneumoniae OXA-48” value (K. pneumoniae OXA-48; Table S3, […] MH at pH 8.5) was 2 µg/mL (≈ 1.51 µM). The “MIC P. aeruginosa PA14 2P4, […] MH at pH 8.5” value (PA14 2P4 (pmrB); CSV, […] MH at pH 8.5) was 4 ug/mL, the “MIC P. aeruginosa PA14 2P4, full MH at pH 7.4” value (PA14 2P4 (pmrB); CSV, full MH at pH 7.4) was 32 ug/mL and the “MIC PA14 2P4 (pmrB)” value (PA14 2P4 (pmrB); MH pH 7.4, 16–20 h at 37 °C) was 32 µg/mL (≈ 24.2 µM). For the same compound, the “MIC P. aeruginosa PA14 2P4” value (PA14 2P4 (pmrB); Table S3, […] MH at pH 8.5) was 4 µg/mL (≈ 3.03 µM), the “MIC P. aeruginosa PA14 4.13, […] MH at pH 8.5” value (PA14 4.13 (phoQ); CSV, […] MH at pH 8.5) was 3 ug/mL and the “MIC P. aeruginosa PA14 4.13, full MH at pH 7.4” value (PA14 4.13 (phoQ); CSV, full MH at pH 7.4) was 4 ug/mL. The “MIC PA14 4.13 (phoQ)” value (PA14 4.13 (phoQ); MH pH 7.4, 16–20 h at 37 °C) was 4 µg/mL (≈ 3.03 µM), the “MIC P. aeruginosa PA14 4.13” value (PA14 4.13 (phoQ); Table S3, […] MH at pH 8.5) was 2 to 4 µg/mL and the “MIC S. aureus COL (MRSA), […] MH at pH 7.4” value (S. aureus COL (MRSA); CSV, […] MH at pH 7.4) was 2 ug/mL. For the same compound, the “MIC S. aureus COL (MRSA), […] MH at pH 8.5” value (S. aureus COL (MRSA); CSV, […] MH at pH 8.5) was 2 ug/mL, the “MIC S. aureus COL (MRSA), full MH at pH 7.4” value (S. aureus COL (MRSA); CSV, full MH at pH 7.4) was 16 ug/mL and the “MIC S. aureus COL (MRSA), full MH at pH 8.5” value (S. aureus COL (MRSA); CSV, full MH at pH 8.5) was 16 ug/mL. The “MIC S. aureus COL (MRSA) […] 7.4” value (S. aureus COL (MRSA); Table S2, […] MH, pH 7.4) was 2 µg/mL (≈ 1.51 µM), the “MIC S. aureus COL (MRSA) […] 8.5” value (S. aureus COL (MRSA); Table S2, […] MH, pH 8.5) was 2 µg/mL (≈ 1.51 µM) and the “MIC S. aureus COL (MRSA) Full MH 7.4” value (S. aureus COL (MRSA); Table S2, full MH, pH 7.4) was 16 µg/mL (≈ 12.1 µM). For the same compound, the “MIC S. aureus COL (MRSA) Full MH 8.5” value (S. aureus COL (MRSA); Table S2, full MH, pH 8.5) was 16 µg/mL (≈ 12.1 µM), the “MIC S. aureus COL (MRSA) […]” value (S. aureus COL (MRSA); diluted MH ([…] MH, pH 8.5) per Table 1 footnote b, 16–20 h at 37 °C) was 2 µg/mL (≈ 1.51 µM) and the “MIC S. aureus COL (MRSA) Full” value (S. aureus COL (MRSA); full MH, pH 7.4, 16–20 h at 37 °C) was 16 µg/mL (≈ 12.1 µM). For the same compound, the “MIC P. aeruginosa ZEM-1A, […] MH at pH 8.5” value ([1]; CSV, […] MH at pH 8.5) was 2 ug/mL, the “MIC P. aeruginosa ZEM-1A, full MH at pH 7.4” value ([1]; CSV, full MH at pH 7.4) was 2 ug/mL and the “MIC P. aeruginosa ZEM-1A” value ([1]; Table S3, […] MH at pH 8.5) was 2 µg/mL (≈ 1.51 µM). For the same compound, the “MIC P. aeruginosa ZEM9A, […] MH at pH 8.5” value ([2]; CSV, […] MH at pH 8.5) was 2 ug/mL, the “MIC P. aeruginosa ZEM9A, full MH at pH 7.4” value ([2]; CSV, full MH at pH 7.4) was 6 ug/mL and the “MIC ZEM9A” value ([2]; MH pH 7.4, 16–20 h at 37 °C) was 4 to 8 µg/mL. For the same compound, the “MIC P. aeruginosa ZEM9A” value ([2]; Table S3, […] MH at pH 8.5) was 2 µg/mL (≈ 1.51 µM), the MHC [3] was 1000 µg/mL and the “CD %α with 5 mM DPC” value ([4]; DichroWeb, Contin-LL) was 61%. The “CD %α with 20% TFE” value ([4]; DichroWeb, Contin-LL) was 34%, the “CD %α with 5 mM DPC” value ([4]; Table S2) was 61% and the “CD %α with 20% TFE” value ([4]; Table S2) was 34%. For the same compound, the “MIC B. cenocepacia, full MH at pH 7.4” value (B. cenocepacia; CSV, full MH at pH 7.4) was greater than 32 ug/mL, the “MIC B. cenocepacia” value (B. cenocepacia; MH pH 7.4, 16–20 h at 37 °C) was greater than 32 µg/mL and the “MIC P. aeruginosa PA14, […] MH at pH 8.5” value (P. aeruginosa PA14; CSV, […] MH at pH 8.5) was 3 ug/mL. The “MIC P. aeruginosa PA14, full MH at pH 7.4” value (P. aeruginosa PA14; CSV, full MH at pH 7.4) was 2 ug/mL, the “MIC P. aeruginosa PA14” value (P. aeruginosa PA14; MH pH 7.4, 16–20 h at 37 °C) was 2 µg/mL (≈ 1.51 µM) and the “MIC P. aeruginosa PA14” value (P. aeruginosa PA14; Table S3, […] MH at pH 8.5, 16-20 hours at 37 °C) was 2 to 4 µg/mL. The “MIC S. aureus Newman, […] MH at pH 8.5” value (S. aureus Newman; CSV, […] MH at pH 8.5) was 3 ug/mL, the “MIC S. aureus Newman, full MH at pH 7.4” value (S. aureus Newman; CSV, full MH at pH 7.4) was 8 ug/mL and the “MIC S. aureus Newman” value (S. aureus Newman; MH pH 7.4, 16–20 h at 37 °C) was 8 µg/mL (≈ 6.05 µM). The “MIC S. aureus Newman” value (S. aureus Newman; Table S3, […] MH at pH 8.5) was 2 to 4 µg/mL, the “MIC S. epidermis, […] MH at pH 8.5” value (S. epidermis; CSV, […] MH at pH 8.5) was 1 ug/mL and the “MIC S. epidermis, full MH at pH 7.4” value (S. epidermis; CSV, full MH at pH 7.4) was 3 ug/mL. The “MIC S. epidermis” value (S. epidermis; MH pH 7.4, 16–20 h at 37 °C) was 2 to 4 µg/mL, the “MIC S. epidermis” value (S. epidermis; Table S3, […] MH at pH 8.5) was 1 µg/mL (≈ 0.757 µM) and the “MIC S. maltophilia, […] MH at pH 8.5” value (S. maltophilia; CSV, […] MH at pH 8.5) was 2 ug/mL. The “MIC S. maltophilia, full MH at pH 7.4” value (S. maltophilia; CSV, full MH at pH 7.4) was 2 ug/mL, the “MIC S. maltophilia” value (S. maltophilia; MH pH 7.4, 16–20 h at 37 °C) was 2 µg/mL (≈ 1.51 µM) and the “MIC S. maltophilia” value (S. maltophilia; Table S3, […] MH at pH 8.5) was 2 µg/mL (≈ 1.51 µM). It also gave an IC50 (HEK293 cells) of 45 ± 9 µM.
